Assay results: ChEMBL document CHEMBL3885881, “DrugMatrix”

Species: Rattus norvegicus
Experiment: DrugMatrix - Regimen: Daily Repeat
Assay type: toxicity, organism-based, Sprague-Dawley
Set-up: regimen Daily Repeat, gender Male, age 6-8 weeks
Conditions: in vivo, 0 mg/kg, dose level Control; for ABSOLUTE BASOPHIL / ABSOLUTE EOSINOPHIL / ABSOLUTE LYMPHOCYTE / ABSOLUTE MONOCYTE / ABSOLUTE SEGMENTED NEUTROPHIL / BASOPHIL / EOSINOPHIL / ERYTHROCYTE COUNT / HEMATOCRIT / HEMOGLOBIN / LEUKOCYTE COUNT / LYMPHOCYTE / MEAN CORPUSCULAR HEMOGLOBIN / MEAN CORPUSCULAR VOLUME / MONOCYTE / NEUTROPHIL / NUCLEATED RED BLOOD CELLS / PLATELET COUNT: tissue Blood; for ALANINE AMINOTRANSFERASE / ALBUMIN / ALKALINE PHOSPHATASE / ASPARTATE AMINOTRANSFERASE / BLOOD UREA NITROGEN / CARBON DIOXIDE / CHLORIDE / CHOLESTEROL / CREATINE PHOSPHOKINASE / CREATININE / GLUCOSE / LACTATE DEHYDROGENASE / LIPASE / PHOSPHORUS / POTASSIUM / SODIUM / TOTAL BILIRUBIN / TOTAL PROTEIN / URIC ACID: tissue Plasma
[1] = po, 72 h, route oral GAVAGE, time 3 day, vehicle 100 % WATER
[2] = po, 120 h, route oral GAVAGE, time 5 day, vehicle 100 % WATER
[3] = sc, 72 h, route subcutaneous, time 3 day, […]
[4] = sc, 120 h, route subcutaneous, time 5 day, […]

In the case of `CC(C)(C)CC(C)(C)c1ccc(OCCOCC[N+](C)(C)Cc2ccccc2)cc1.[Cl-]` [BENZETHONIUM CHLORIDE], the “ABSOLUTE BASOPHIL” value [1] is reported as 0 CELLS/uL, the “ABSOLUTE EOSINOPHIL” value [1] is reported as 20.17 CELLS/uL and the “ABSOLUTE LYMPHOCYTE” value [1] is reported as 12371.67 CELLS/uL. For the same compound, the “ABSOLUTE MONOCYTE” value [1] was 166 CELLS/uL, the “ABSOLUTE SEGMENTED NEUTROPHIL” value [1] was 1292.17 CELLS/uL and the BASOPHIL [1] was 0%. For the same compound, the EOSINOPHIL [1] was 0.17%, the “ERYTHROCYTE COUNT” value [1] was 5.46 x10E6/uL and the HEMATOCRIT [1] was 34.38%. The HEMOGLOBIN [1] was 13.32 G/DL, the “LEUKOCYTE COUNT” value [1] was 13.85 x10E3/uL and the LYMPHOCYTE [1] was 88.5%. For the same compound, the “MEAN CORPUSCULAR HEMOGLOBIN” value [1] was 24.42 pg, the “MEAN CORPUSCULAR VOLUME” value [1] was 63.07 fL and the MONOCYTE [1] was 1.17%. The NEUTROPHIL [1] was 10.17%, the “NUCLEATED RED BLOOD CELLS” value [1] was 0.17 /100WBC and the “PLATELET COUNT” value [1] was 1193.5 x10E3/uL. The “ALANINE AMINOTRANSFERASE” value [1] was 54.5 u/L, the ALBUMIN [1] was 4.02 G/DL and the “ALKALINE PHOSPHATASE” value [1] was 346.5 u/L. The “ASPARTATE AMINOTRANSFERASE” value [1] was 103.17 u/L, the “BLOOD UREA NITROGEN” value [1] was 16.5 mg/dL and the “CARBON DIOXIDE” value [1] was 29.83 mmol/L. The CHLORIDE [1] was 99.5 MEQ/L, the CHOLESTEROL [1] was 72.5 mg/dL and the “CREATINE PHOSPHOKINASE” value [1] was 532.5 u/L. For the same compound, the CREATININE [1] was 0.18 mg/dL, the GLUCOSE [1] was 168.5 mg/dL and the “LACTATE DEHYDROGENASE” value [1] was 536.5 u/L. For the same compound, the LIPASE [1] was 11.17 u/L, the PHOSPHORUS [1] was 11.48 mg/dL and the POTASSIUM [1] was 5.95 MEQ/L. For the same compound, the SODIUM [1] was 140.5 MEQ/L, the “TOTAL BILIRUBIN” value [1] was 0.18 mg/dL and the “TOTAL PROTEIN” value [1] was 5.77 G/DL. For the same compound, the “URIC ACID” value [1] was 1.42 mg/dL, the “ABSOLUTE BASOPHIL” value [2] was 0 CELLS/uL and the “ABSOLUTE EOSINOPHIL” value [2] was 22.83 CELLS/uL. For the same compound, the “ABSOLUTE LYMPHOCYTE” value [2] was 12202.83 CELLS/uL, the “ABSOLUTE MONOCYTE” value [2] was 158 CELLS/uL and the “ABSOLUTE SEGMENTED NEUTROPHIL” value [2] was 1283 CELLS/uL. For the same compound, the BASOPHIL [2] was 0%, the EOSINOPHIL [2] was 0.17% and the “ERYTHROCYTE COUNT” value [2] was 5.88 x10E6/uL. The HEMATOCRIT [2] was 36.62%, the HEMOGLOBIN [2] was 14.07 G/DL and the “LEUKOCYTE COUNT” value [2] was 13.67 x10E3/uL. For the same compound, the LYMPHOCYTE [2] was 89.5%, the “MEAN CORPUSCULAR HEMOGLOBIN” value [2] was 23.95 pg and the “MEAN CORPUSCULAR VOLUME” value [2] was 62.28 fL. The MONOCYTE [2] was 1.17%, the NEUTROPHIL [2] was 9.17% and the “NUCLEATED RED BLOOD CELLS” value [2] was 0.17 /100WBC. The “PLATELET COUNT” value [2] was 1198 x10E3/uL, the “ALANINE AMINOTRANSFERASE” value [2] was 51 u/L and the ALBUMIN [2] was 4.3 G/DL. The “ALKALINE PHOSPHATASE” value [2] was 343 u/L, the “ASPARTATE AMINOTRANSFERASE” value [2] was 89.83 u/L and the “BLOOD UREA NITROGEN” value [2] was 17.67 mg/dL. For the same compound, the “CARBON DIOXIDE” value [2] was 27.17 mmol/L, the CHLORIDE [2] was 98.33 MEQ/L and the CHOLESTEROL [2] was 82.5 mg/dL. For the same compound, the “CREATINE PHOSPHOKINASE” value [2] was 533.33 u/L, the CREATININE [2] was 0.18 mg/dL and the GLUCOSE [2] was 152.67 mg/dL. The “LACTATE DEHYDROGENASE” value [2] was 220.33 u/L, the LIPASE [2] was 11.5 u/L and the PHOSPHORUS [2] was 11.25 mg/dL. For the same compound, the POTASSIUM [2] was 6.29 MEQ/L, the SODIUM [2] was 140.53 MEQ/L and the “TOTAL BILIRUBIN” value [2] was 0.22 mg/dL. The “TOTAL PROTEIN” value [2] was 6.12 G/DL, the “URIC ACID” value [2] was 1.42 mg/dL and the “ABSOLUTE BASOPHIL” value [3] was 0 CELLS/uL. The “ABSOLUTE EOSINOPHIL” value [3] was 92.33 CELLS/uL, the “ABSOLUTE LYMPHOCYTE” value [3] was 12247.5 CELLS/uL and the “ABSOLUTE MONOCYTE” value [3] was 389.67 CELLS/uL. For the same compound, the “ABSOLUTE SEGMENTED NEUTROPHIL” value [3] was 1320.5 CELLS/uL, the BASOPHIL [3] was 0% and the EOSINOPHIL [3] was 0.67%. For the same compound, the “ERYTHROCYTE COUNT” value [3] was 5.45 x10E6/uL, the HEMATOCRIT [3] was 34.85% and the HEMOGLOBIN [3] was 12.97 G/DL. For the same compound, the “LEUKOCYTE COUNT” value [3] was 14.05 x10E3/uL, the LYMPHOCYTE [3] was 87.33% and the “MEAN CORPUSCULAR HEMOGLOBIN” value [3] was 23.78 pg. The “MEAN CORPUSCULAR VOLUME” value [3] was 63.93 fL, the MONOCYTE [3] was 2.67% and the NEUTROPHIL [3] was 9.33%. The “NUCLEATED RED BLOOD CELLS” value [3] was 0 /100WBC, the “PLATELET COUNT” value [3] was 1174 x10E3/uL and the “ALANINE AMINOTRANSFERASE” value [3] was 48.83 u/L. The ALBUMIN [3] was 4.23 G/DL, the “ALKALINE PHOSPHATASE” value [3] was 351.5 u/L and the “ASPARTATE AMINOTRANSFERASE” value [3] was 90 u/L. For the same compound, the “BLOOD UREA NITROGEN” value [3] was 15.33 mg/dL, the “CARBON DIOXIDE” value [3] was 23 mmol/L and the CHLORIDE [3] was 103.5 MEQ/L. The CHOLESTEROL [3] was 70.5 mg/dL, the “CREATINE PHOSPHOKINASE” value [3] was 651.83 u/L and the CREATININE [3] was 0.22 mg/dL. For the same compound, the GLUCOSE [3] was 180.67 mg/dL, the “LACTATE DEHYDROGENASE” value [3] was 165 u/L and the LIPASE [3] was 9.33 u/L. It also gave a PHOSPHORUS [3] of 12.03 mg/dL, a POTASSIUM [3] of 6.17 MEQ/L and an SODIUM [3] of 142.62 MEQ/L. The “TOTAL BILIRUBIN” value [3] was 0.2 mg/dL, the “TOTAL PROTEIN” value [3] was 5.73 G/DL and the “URIC ACID” value [3] was 1.77 mg/dL. The “ABSOLUTE BASOPHIL” value [4] was 0 CELLS/uL, the “ABSOLUTE EOSINOPHIL” value [4] was 0 CELLS/uL and the “ABSOLUTE LYMPHOCYTE” value [4] was 12736.67 CELLS/uL. The “ABSOLUTE MONOCYTE” value [4] was 253.5 CELLS/uL, the “ABSOLUTE SEGMENTED NEUTROPHIL” value [4] was 1193.17 CELLS/uL and the BASOPHIL [4] was 0%. The EOSINOPHIL [4] was 0%, the “ERYTHROCYTE COUNT” value [4] was 5.72 x10E6/uL and the HEMATOCRIT [4] was 36.05%. The HEMOGLOBIN [4] was 13.62 G/DL, the “LEUKOCYTE COUNT” value [4] was 14.18 x10E3/uL and the LYMPHOCYTE [4] was 89.33%. The “MEAN CORPUSCULAR HEMOGLOBIN” value [4] was 23.83 pg, the “MEAN CORPUSCULAR VOLUME” value [4] was 63.05 fL and the MONOCYTE [4] was 1.83%. The NEUTROPHIL [4] was 8.83%, the “NUCLEATED RED BLOOD CELLS” value [4] was 0 /100WBC and the “PLATELET COUNT” value [4] was 1322.17 x10E3/uL. For the same compound, the “ALANINE AMINOTRANSFERASE” value [4] was 48.83 u/L, the ALBUMIN [4] was 4.27 G/DL and the “ALKALINE PHOSPHATASE” value [4] was 295.17 u/L. For the same compound, the “ASPARTATE AMINOTRANSFERASE” value [4] was 75.83 u/L, the “BLOOD UREA NITROGEN” value [4] was 15.5 mg/dL and the “CARBON DIOXIDE” value [4] was 30.5 mmol/L. The CHLORIDE [4] was 102.33 MEQ/L, the CHOLESTEROL [4] was 76.17 mg/dL and the “CREATINE PHOSPHOKINASE” value [4] was 205.5 u/L. For the same compound, the CREATININE [4] was 0.2 mg/dL, the GLUCOSE [4] was 149.67 mg/dL and the “LACTATE DEHYDROGENASE” value [4] was 124.5 u/L. For the same compound, the LIPASE [4] was 10 u/L, the PHOSPHORUS [4] was 10.93 mg/dL and the POTASSIUM [4] was 6.59 MEQ/L. For the same compound, the SODIUM [4] was 143.1 MEQ/L, the “TOTAL BILIRUBIN” value [4] was 0.2 mg/dL and the “TOTAL PROTEIN” value [4] was 6.05 G/DL. The “URIC ACID” value [4] was 1.45 mg/dL.
